The text below walks through data of patent US20200061007A1, “CANCER STEM CELL PROLIFERATION INHIBITOR” (NATIONAL INSTITUTE OF ADVANCED INDUSTRIAL SCIENCE AND …, priority 2014, published 2020).

Test [1] deals with human breast cancer cell line MCF-7. Nature of the test: Growth inhibition of MCF-7 in vitro. It is filed as cell-based. The settings on record: MCF-7, 96 hours of exposure, RPMI1640 with 2% FBS. As for the experimental part: A human breast cancer cell line MCF-7, containing cells positive for cancer stem cell markers, was cultured in RPMI1640 medium supplemented with 2% FBS, and the growth inhibitory action by the combination of Am80 and 5-AZ was studied. The IC50 values of the agents determined by 96 hours of the exposure were 1 μM and 20 μM, respectively. Thus, in order to study the growth inhibitory action, Am80 was used within the concentration range of 0.125 μM to 1 μM with a common ratio of 2, and 5-AZ was used within the concentration range of 2.5 μM to 20 μM with a common ratio of 2. In cases of use of these agents in combination, the growth inhibitory action was studied using these concentrations.

For test [2], the system named is Human Leukemia Cell Line Kasumi-1. Nature of the test: Growth inhibition of Kasumi-1, isobologram. The settings on record: Kasumi-1, RPMI1640 with 20% FBS. It is filed as cell-based. As for the experimental part:
A human leukemia cell line Kasummi-1, containing cells positive for cancer stem cell markers, was cultured in RPMI1640 medium supplemented with 20% FBS, and the growth inhibitory action by the combination of Am80 and 5-AZ was studied using Isobologram. […] These concentrations were taken as 1.0, and the points corresponding to 1.0 in the two axes were connected to each other via a straight line. In cases where the ratio observed for the combination effect is on the line, the effect is additive, and, in cases where the ratio is below the line, the effect is synergistic.

For test [3], the system named is human prostate cancer cell line LNCaP. The test can be described thus: Growth inhibition of LNCaP in vitro. The settings on record: 96 hours of exposure, RPMI1640 with 10% FBS. It is filed as cell-based. On the procedure:
A human prostate cancer cell line LNCaP, containing cells positive for cancer stem cell markers, was cultured in RPMI1640 medium supplemented with 10% FBS, and the growth inhibitory action by the combination of Am80 and 5-AZ was studied. […] Thus, in order to study the growth inhibitory action, Am80 was used within the concentration range of 0.125 μM to 1 μM with a common ratio of 2, and 5-AZ was used within the concentration range of 1.56 μM to 12.5 μM with a common ratio of 2. In cases of use of these agents in combination, the growth inhibitory action was studied using these concentrations.

Test [4] has the same test system. Nature of the test: Tumor volume, LNCaP/nude mice. It is filed as in vivo. On the procedure:
(§1) A tumor piece of a human prostate cancer cell line LNCaP containing cells positive for cancer stem cell markers was subcutaneously transplanted to the dorsal part of each of 6-week-old female BALB/cAJc1-nu nude mice (4 mice/group) using a trocar needle. At the time when the tumor volume reached 100 to 200 mm^3, the administration was started. Am80 was orally administered once a day at a dose of 1 mg/kg for 21 continuous days, and DXL was intravenously administered at a dose of 5 mg/kg from Day 1, 3 times at intervals of 4 days. In the combination group, the agents were administered at the same doses as, and by the same administration methods as, those in the cases of administration of each single agent. Measurement of the tumor diameter was carried out until the next day of the completion of the administration (Day 22). The longitudinal diameter and the transverse diameter of the tumor were measured using a caliper, and the tumor volume (mm^3) was determined according to the following formula: longitudinal diameter×transverse diameter^2/2. In the control group, physiological saline was intraperitoneally administered from Day 1, 3 times at intervals of 4 days.

In test [5] the test system is human pancreatic cancer cells MIA-Paca2. Nature of the test: Tumor volume, MIA-Paca2/nude mice. It is filed as in vivo. On the procedure:
A tumor piece of human pancreatic cancer cells MIA-Paca2 containing cells positive for cancer stem cell markers was subcutaneously transplanted to the dorsal part of each of 6-week-old female BALB/cAJc1-nu nude mice (4 mice/group, 5 mice only for the control group) using a trocar needle. At the time when the tumor volume reached 100 to 200 mm^3, the administration was started. Am80 was orally administered once a day at a dose of 2 mg/kg for 21 continuous days, and DXL was intravenously administered at a dose of 5 mg/kg from Day 1, 3 times at intervals of 4 days. In the combination group, the agents were administered at the same doses as, and by the same administration methods as, those in the cases of administration of each single agent. Measurement of the tumor diameter was carried out until the next day of the completion of the administration (Day 22). Based on the measured values of the longitudinal diameter and the transverse diameter, the tumor volume (mm^3) was determined according to the following formula: longitudinal diameter×transverse diameter^2/2. In the control group, physiological saline was intraperitoneally administered from Day 1, 3 times at intervals of 4 days.

Test [6] relates to human breast cancer cell line MCF-7. The test can be described thus: Tumor volume, MCF-7/nude mice. It is filed as in vivo. As for the experimental part: as §1, with “breast” for “prostate”, “MCF-7” for “LNCaP”, “(5” for “(4”, “3.5” for “5”

By IC50 is commonly meant the point on the concentration scale where inhibition reaches its midpoint. Turning to `Nc1ncn([C@@H]2O[C@H](CO)[C@@H](O)[C@H]2O)c(=O)n1` [5-AZ, Azacytidine], the IC50 in test [1] is 20 µM; in test [2] it was 8.4 µM; in test [3], 25 µM.
On to `CC(=O)O[C@@]12CO[C@@H]1C[C@H](O)[C@@]1(C)C(=O)[C@H](O)C3=C(C)[C@@H](OC(=O)[C@H](O)[C@@H](NC(=O)OC(C)(C)C)c4ccccc4)C[C@@](O)([C@@H](OC(=O)c4ccccc4)[C@H]21)C3(C)C` [DXL, Docetaxel], for which the “tumor volume Day 1” value in test [4] (Am80 1 mg/kg oral daily 21 days, DXL 5 mg/kg i.v. 3 times at intervals of 4 days, Day 1) was 126.7 mm^3; in test [5] (Am80 2 mg/kg oral daily 21 days, DXL 5 mg/kg i.v. 3 times at intervals of 4 days, Day 1), 136.7 mm^3; in test [6] (Am80 1 mg/kg oral daily 21 days, DXL 3.5 mg/kg i.v. 3 times at intervals of 4 days, Day 1), 143.5 mm^3. Moreover, the “tumor volume Day 5” value was 111.3 mm^3 in test [4] (Am80 1 mg/kg oral daily, DXL 5 mg/kg i.v., Day 5); 151.3 mm^3 in test [5] (Am80 2 mg/kg oral daily, DXL 5 mg/kg i.v., Day 5); 121.5 mm^3 in test [6] (Am80 1 mg/kg oral daily, DXL 3.5 mg/kg i.v., Day 5). Moreover, the “tumor volume Day 9” value in test [4] (Am80 1 mg/kg oral daily, DXL 5 mg/kg i.v., Day 9) was found to be 90.7 mm^3; in test [5] (Am80 2 mg/kg oral daily, DXL 5 mg/kg i.v., Day 9) it was 135.7 mm^3; in test [6] (Am80 1 mg/kg oral daily, DXL 3.5 mg/kg i.v., Day 9) it was 110.0 mm^3. In addition, the “tumor volume Day 13” value amounted to 73.7 mm^3 in test [4] (Am80 1 mg/kg oral daily, DXL 5 mg/kg i.v., Day 13); 93.7 mm^3 in test [5] (Am80 2 mg/kg oral daily, DXL 5 mg/kg i.v., Day 13); 83.3 mm^3 in test [6] (Am80 1 mg/kg oral daily, DXL 3.5 mg/kg i.v., Day 13). For the same molecule, the “tumor volume Day 17” value in test [4] (Am80 1 mg/kg oral daily, DXL 5 mg/kg i.v., Day 17) is given as 72.5 mm^3; in test [5] (Am80 2 mg/kg oral daily, DXL 5 mg/kg i.v., Day 17) it was 76.3 mm^3; in test [6] (Am80 1 mg/kg oral daily, DXL 3.5 mg/kg i.v., Day 17), 66.5 mm^3. Besides, the “tumor volume Day 22” value in test [4] (Am80 1 mg/kg oral daily, DXL 5 mg/kg i.v., Day 22) was 70.2 mm^3; in test [5] (Am80 2 mg/kg oral daily, DXL 5 mg/kg i.v., Day 22), 77.3 mm^3; in test [6] (Am80 1 mg/kg oral daily, DXL 3.5 mg/kg i.v., Day 22), 71.3 mm^3.
